Results as given in PMC5404848 (Cell Chemical Biology, 2017).
Where two headings read alike, the source gives them in different places.

Columns and labels:
[1] = target: T1, human recombinant USP2a catalytic domain (residues 258-605) (Homo sapiens, UniProt O75604); assay: Di-Ub K63-2 hydrolysis (FRET) assay; settings: read-out: IC50, USP2a activity, Di-Ub Assay; Di-Ub K63-2, 30 min pre-incubation
T1 sequence (O75604 258-605): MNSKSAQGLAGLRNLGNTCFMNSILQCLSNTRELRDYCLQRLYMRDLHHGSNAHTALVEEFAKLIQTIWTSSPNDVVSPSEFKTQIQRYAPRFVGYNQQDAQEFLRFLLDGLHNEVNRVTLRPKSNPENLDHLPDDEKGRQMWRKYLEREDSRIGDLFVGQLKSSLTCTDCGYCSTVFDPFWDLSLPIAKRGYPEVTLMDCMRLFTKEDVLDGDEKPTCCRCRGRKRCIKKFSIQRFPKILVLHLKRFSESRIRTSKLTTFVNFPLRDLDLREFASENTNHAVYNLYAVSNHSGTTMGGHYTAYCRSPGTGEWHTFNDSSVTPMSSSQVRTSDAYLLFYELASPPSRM
Description: (§4) The assays were performed using Infinite 200 PRO – Tecan plate reader and 96-well, black Greiner microplates in a 100 μl reaction volume.
Di-Ub K63-2 hydrolysis assay was performed in 50 mM Tris/HCl pH=7.5, 1mM DTT. USP2a (20 nM) was preincubated with an excess of tested compound for 30 min. Fluorescence changes were recorded at excitation and emission wavelengths of 540 nm and 580 nm respectively, immediately after Di-Ub (200 nM, LifeSensors) addition.
(§5) All assays were performed simultaneously in triplicate and results are presented as mean values ± SD.

HCT116 p53^wt cells [2] = assay: MTT assay (cell viability), 6 days treatment; type: cell-based, Human; settings: for LD50 (concentration killing 50% of cells): Homo sapiens, HCT-116, 144 h, read-out: LD50; for growth-inhibitory (GI) properties: cell-based assay (discussion)
Description: (§1) To test the biological activity of the compounds, we performed MTT (3-(4,5-dimethylthiazol-2-yl)-2,5-diphenyltetrazolium bromide) and lactate dehydrogenase (LDH) release assays. […] To track not only the toxic (lethal) but also growth-inhibitory (GI) effect in the MTT assay, we treated the cells for 6 days.
(§2) For MTT assay, the cells were seeded on 96-well transparent plates and treated the next day with the compounds or DMSO for 6 days. Thiazolyl Blue Tetrazolium Bromide (MTT, Sigma Aldrich) was added for 60 minutes to a final concentration of […]. The medium was removed and MTT crystals were dissolved in isopropanol supplemented with 40 mM HCl. The absorbance was measured with Infinite 200 microplate reader (Tecan Group Ltd.) at 570 nm with the reference wavelength 650 nm for background subtraction.

HCT116 p53^−/− cells [3] = assay: MTT assay (cell viability), 6 days treatment; type: cell-based, Human
Description: as §1, §2

[4] = target: T1, human recombinant USP2a catalytic domain (residues 258-605); assay: Ub-AMC hydrolysis assay; settings: 30 min pre-incubation; for IC50: read-out: IC50, USP2a activity, Ub-AMC Assay
Description: as §4
Ub-AMC-hydrolysis assay was performed in a reaction buffer (50 mM Tris/HCl, pH=7.5, 1 mM EDTA, 1 mM MgCl2).
as §5

[5] = Solubility problems in cell line experiment or enzymatic assay; type: physicochemical; settings: in either the cell line experiment or the enzymatic assay
HCT116 p53^wt cells [6] = assay: Western blot analysis of protein expression; type: cell-based, Human; settings: for expression of p27: 5 or 20 μM, 48 hr, HCT116 cells (Figures 2A and S3A); for expression of proteins encoded by p53-target genes (MDM2 and p21) and of p53: 24 or 48 hr
HCT116 p53^wt cells [7] = assay: Western blot analysis of protein expression; type: cell-based, Human; settings: 5 or 20 μM, 48 hr
Text: (§3) The progression from G1 to S phase relies largely on the expression and activity of D cyclins. To verify whether the observed impairment in cell-cycle progression following LCAHA treatment is associated with D cyclins, we investigated the expression of cyclins D1 and D3 in HCT116 p53^wt and HCT116 p53^−/− cells.

HCT116 p53^−/− cells [8] = assay: Western blot analysis of protein expression; type: cell-based, Human; settings: 5 or 20 μM, 48 hr
Text: as §3

USP7 = target: T2, USP7 (Homo sapiens, UniProt Q93009); assay: Ub-AMC assay, USP7 selectivity; type: biochemical; settings: 10 μM
T2 construct: Human USP7 catalytic domain (residues 208-561) was cloned into the pGEX-6P-1 vector; GST (N, cleaved yes); made in house; host or cells: E. coli BL21 (DE3)
Description: Cells were grown in LB medium containing 100 μg/ml ampicillin at 37 °C and induced with 0.5 mM IPTG at OD600 of 0.7-0.9 and cultured overnight at 16 °C. Cells were harvested by centrifugation. Next cells were resuspended in buffer A (50 mM Tris/HCl pH 9.0, 50 mM NaCl, 3 mM β-mercapthoetanol) and disrupted by sonication. Cell lysate were clarified by centrifugation (45 000 g, 40 min.) and dialyzed against buffer A. Supernatant was loaded onto Q-Sepharose column and proteins were eluted with NaCl gradient. Fractions containing GST fused USP7 were combined, concentrated and dialyzed against buffer (50 mM Tris/HCl pH 7.0, 50 mM NaCl, 3 mM β-mercapthoetanol). During dialysis protein was digested with PreScission Protease (GE Healthcare). USP7 protein and cleaved GST were separated on Mono Q HR 10/10 column (GE Healthcare). The last purification step consisted of size exclusion chromatography on HiLoad 16/60 Superdex 75 prep grade (GE Healthcare) in 50 mM Tris/HCl, 150 mM NaCl, 2 mM DTT.

USP2a = test system: USP2a; design: method as in Nicholson et al., 2008; settings: ref Nicholson et al., 2008; read-out: EC50 (previously reported); cited from earlier work
HCT116 p53^wt cells [9] = assay: Caspase 3/7 activity (Caspase-Glo 3/7); type: cell-based, Human; settings: staurosporine treatment (apoptosis inducer control)
Description: To evaluate whether the observed effects are accompanied by the induction of apoptosis, we examined the activation of caspases 3 and 7 in HCT116 p53^wt cells.
The cells were plated on the 96-well white, flat bottom plates (Falcon) and treated with DMSO, LCAHA or Staurosporine. For the detection of caspase activity Caspase-Glo 3/7 Assay System was used (Promega) according to the manufacturer’s instructions.

[10] = Homo sapiens, HCT-116, 144 h, read-out: LD50

T2 sequence (Q93009 208-561): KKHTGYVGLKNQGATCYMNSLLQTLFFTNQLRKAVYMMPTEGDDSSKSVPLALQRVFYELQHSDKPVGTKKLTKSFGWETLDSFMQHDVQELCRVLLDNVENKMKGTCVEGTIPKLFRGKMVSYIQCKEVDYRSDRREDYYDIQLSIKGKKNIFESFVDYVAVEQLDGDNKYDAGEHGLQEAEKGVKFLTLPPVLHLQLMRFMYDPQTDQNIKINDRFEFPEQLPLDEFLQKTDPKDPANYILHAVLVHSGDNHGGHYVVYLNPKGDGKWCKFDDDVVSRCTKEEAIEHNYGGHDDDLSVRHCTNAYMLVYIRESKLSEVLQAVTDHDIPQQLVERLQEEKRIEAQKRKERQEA

`C[C@H](CCC(N)=O)[C@H]1CC[C@H]2[C@@H]3CC[C@@H]4C[C@H](O)CC[C@]4(C)[C@H]3CC[C@]12C` [LCANH2, 3-hydroxylithocholanamide] showed an IC50 [1] of 16.7 ± 1.3 µM, an LD50 (concentration killing 50% of cells) (HCT116 p53^wt cells [2]) of 24.5 ± 0.9 µM and an LD50 (HCT116 p53^−/− cells [3]; [10]) of 41.8 ± 2.7 µM. It also gave an IC50 [4] of 27.9 ± 1 µM.

Work on `COC(=O)CC[C@@H](C)[C@H]1CC[C@H]2[C@@H]3CC[C@@H]4C[C@H](O)CC[C@]4(C)[C@H]3CC[C@]12C` [LCAME, Methyl 3-Hydroxylithocholanoate] yielded an IC50 [1] of over 50 µM, an LD50 (HCT116 p53^wt cells [2]; HCT116^wt, MTT assay, 6 days) of 20.5 ± 1.1 µM and an LD50 (HCT116 p53^−/− cells [3]; HCT116 p53^−/−, MTT assay, 6 days) of 35.1 ± 4.8 µM. The IC50 [4] was over 50 µM.

Compound `C[C@H](CCC(=O)NCC(=O)O)[C@H]1CC[C@H]2[C@@H]3CC[C@@H]4C[C@H](O)CC[C@]4(C)[C@H]3CC[C@]12C` [LCAGLY, N-(3-hydroxylithocholanolyl)glycine] has an IC50 [1] of over 50 µM and an IC50 [4] of over 50 µM.

For `C[C@H](CCC(=O)O)[C@H]1CC[C@H]2[C@@H]3[C@@H](O)C[C@@H]4C[C@H](O)CC[C@]4(C)[C@H]3CC[C@]12C` [UDCA, ursodeoxycholic acid, reference compound], the IC50 [1] was over 100 µM and the “IC50, USP2a activity, Ub-AMC Assay” value [4] was “not active”.

`C[C@H](CCC(=O)N1CCOCC1)[C@H]1CC[C@H]2[C@@H]3CC[C@@H]4C[C@H](O)CC[C@]4(C)[C@H]3CC[C@]12C` [LCAMR, N-lithocholanolyl Morpholine] gave an IC50 [1] of over 100 µM, an LD50 (concentration killing 50% of cells) (HCT116 p53^wt cells [2]) of 8.2 ± 0.7 µM and an LD50 (HCT116 p53^−/− cells [3]; [10]) of 7.9 ± 0.7 µM. It also gave an IC50 [4] of over 100 µM.

In the case of `C[C@H](CCC(=O)NCCS(=O)(=O)O)[C@H]1CC[C@H]2[C@@H]3[C@H](O)C[C@@H]4C[C@H](O)CC[C@]4(C)[C@H]3C[C@H](O)[C@]12C` [TCAS, taurocholic acid, reference compound], the “IC50, USP2a activity, Ub-AMC Assay” value [4] is reported as “not active”.

With `C[C@H](CCC(=O)NCC#N)[C@H]1CC[C@H]2[C@@H]3CC[C@@H]4C[C@H](O)CC[C@]4(C)[C@H]3CC[C@]12C` [LCACN, N-(cyanomethyl)-3-hydroxylithocholanamide] the IC50 [1] was 13.9 ± 2.3 µM, the LD50 (concentration killing 50% of cells) (HCT116 p53^wt cells [2]) was 28 ± 0.7 µM and the LD50 (HCT116 p53^−/− cells [3]; [10]) was 29.9 ± 3.2 µM. For the same compound, the solubility [5] was “solubility problems” and the IC50 [4] was 7.4 ± 1.2 µM.

With `C[C@H](CCC(=O)O)[C@H]1CC[C@H]2[C@@H]3CC[C@@H]4CC(=O)CC[C@]4(C)[C@H]3CC[C@]12C` [LCAK, 3-Oxo-Lithocholic Acid] the IC50 [1] was 33.1 ± 3.2 µM and the IC50 [4] was 32 ± 1.8 µM.

With `C[C@H](CCC(=O)O)[C@H]1CC[C@H]2[C@@H]3[C@H](O)C[C@@H]4C[C@H](O)CC[C@]4(C)[C@H]3C[C@H](O)[C@]12C` [CGG, cholic acid, reference compound] the IC50 [1] was over 100 µM and the “IC50, USP2a activity, Ub-AMC Assay” value [4] was “not active”.

With `CC(=O)O[C@@H]1CC[C@@]2(C)[C@H](CC[C@@H]3[C@@H]2CC[C@]2(C)[C@@H]([C@H](C)CCC(=O)O)CC[C@@H]32)C1` [LCAE, 3-Acetoxy-Lithocholic Acid] the “expression of p27” value (HCT116 p53^wt cells [6]) was “not altered”, the “expression of proteins encoded by p53-target genes (MDM2 and p21) and of p53” value (HCT116 p53^wt cells [6]) was “did not induce” and the “growth-inhibitory (GI) properties” value (HCT116 p53^wt cells [2]) was “no GI properties”. The “cyclin D1 expression” value (HCT116 p53^wt cells [7]) was “decreased the expression of the protein”, the “cyclin D3 expression” value (HCT116 p53^wt cells [7]) was “no effect” and the “cyclin D3 expression” value (HCT116 p53^−/− cells [8]) was “no effect”.

In the case of `C[C@H](CCC(=O)O)[C@H]1CC[C@H]2[C@@H]3CC[C@@H]4C[C@H](O)CC[C@]4(C)[C@H]3CC[C@]12C` [LCA, Lithocholic acid, reference compound], the IC50 [1] is reported as 32 ± 3.2 µM, the “expression of p27” value (HCT116 p53^wt cells [6]) is reported as “not altered” and the “expression of proteins encoded by p53-target genes (MDM2 and p21) and of p53” value (HCT116 p53^wt cells [6]) is reported as “did not induce”. For the same compound, the “growth-inhibitory (GI) properties” value (HCT116 p53^wt cells [2]) was “inactive in the inhibition of cell growth”, the “inhibition of USP7 protein activity” value (USP7) was “no inhibition” and the IC50 [4] was 31.1 ± 3.4 µM. The “cyclin D1 expression” value (HCT116 p53^wt cells [7]) was “did not affect”, the “cyclin D3 expression” value (HCT116 p53^wt cells [7]) was “significantly increased” and the “cyclin D1 expression” value (HCT116 p53^−/− cells [8]) was “did not affect”. For the same compound, the “cyclin D3 expression” value (HCT116 p53^−/− cells [8]) was “significantly increased”.

In the case of `Cc1ccc(/C=C2\CNC/C(=C\c3ccc(C)cc3)C2=O)cc1` [NSC 632839, reference compound], the IC50 [1] is listed as over 50 µM, the EC50 (USP2a) is listed as 45 ± 4 µM and the IC50 [4] is listed as 39.1 ± 6.4 µM.

For `CN[C@@H]1C[C@H]2O[C@@](C)([C@@H]1OC)n1c3ccccc3c3c4c(c5c6ccccc6n2c5c31)C(=O)NC4` [staurosporine, reference compound], the “activity of caspases 3 and 7” value (HCT116 p53^wt cells [9]) was “strong increase”.
